In the CheMixHub viscosity set:
Several values for one entry are separate records, joined by “and”; a condition that tells them apart may be missing. Equal entries are not always repeated.

Experiment: xn = mol fraction of the nth substance listed

Cc1ccccc1 + CC#N
Conditions	viscosity [mPa·s]
298.15 K, 101.3 kPa, x1 = 0.04717	0.348
298.15 K, 101.3 kPa, x1 = 0.1002	0.35
298.15 K, 101.3 kPa, x1 = 0.1603	0.365
298.15 K, 101.3 kPa, x1 = 0.229	0.38
298.15 K, 101.3 kPa, x1 = 0.3082	0.403
298.15 K, 101.3 kPa, x1 = 0.4006	0.427
298.15 K, 101.3 kPa, x1 = 0.5097	0.457
298.15 K, 101.3 kPa, x1 = 0.6406	0.487
298.15 K, 101.3 kPa, x1 = 0.8004	0.527
298.17 K, 100 kPa, x2 = 0.5	0.4526
298.19 K, 100 kPa, x2 = 0.25	0.5085
303 K, 100 kPa, x2 = 0.126	0.5031
303 K, 100 kPa, x2 = 0.2324	0.4911
303 K, 100 kPa, x2 = 0.3293	0.4787
303 K, 100 kPa, x2 = 0.4233	0.4725
303 K, 100 kPa, x2 = 0.5023	0.4621
303 K, 100 kPa, x2 = 0.6588	0.4355
303 K, 100 kPa, x2 = 0.7316	0.4231
303 K, 100 kPa, x2 = 0.876	0.4007
308 K, 100 kPa, x2 = 0.126	0.4825
308 K, 100 kPa, x2 = 0.2324	0.4755
308 K, 100 kPa, x2 = 0.3293	0.4625
308 K, 100 kPa, x2 = 0.4233	0.4525
308 K, 100 kPa, x2 = 0.5023	0.4436
308 K, 100 kPa, x2 = 0.6588	0.4166
308 K, 100 kPa, x2 = 0.7316	0.4038
308 K, 100 kPa, x2 = 0.876	0.3715
308.15 K, 101 kPa, x1 = 0.1038	0.3334
308.15 K, 101 kPa, x1 = 0.2993	0.3692
308.15 K, 101 kPa, x1 = 0.3885	0.3887
308.15 K, 101 kPa, x1 = 0.5986	0.424
308.15 K, 101 kPa, x1 = 0.6907	0.4457
308.15 K, 101 kPa, x1 = 0.7946	0.4617
308.15 K, 101 kPa, x1 = 0.8925	0.4789
308.15 K, 101.3 kPa, x1 = 0.04717	0.309
308.15 K, 101.3 kPa, x1 = 0.1002	0.309
308.15 K, 101.3 kPa, x1 = 0.1603	0.33
308.15 K, 101.3 kPa, x1 = 0.3082	0.375
308.15 K, 101.3 kPa, x1 = 0.4006	0.389
308.15 K, 101.3 kPa, x1 = 0.5097	0.421
308.15 K, 101.3 kPa, x1 = 0.6406	0.434
308.15 K, 101.3 kPa, x1 = 0.8004	0.45
313 K, 100 kPa, x2 = 0.126	0.4655
313 K, 100 kPa, x2 = 0.2324	0.4551
313 K, 100 kPa, x2 = 0.3293	0.4425
313 K, 100 kPa, x2 = 0.4233	0.4311
313 K, 100 kPa, x2 = 0.5023	0.4179
313 K, 100 kPa, x2 = 0.6588	0.4006
313 K, 100 kPa, x2 = 0.7316	0.3878
313 K, 100 kPa, x2 = 0.876	0.3512
323.05 K, 100 kPa, x2 = 0.75	0.308
323.08 K, 100 kPa, x2 = 0.25	0.3879
323.09 K, 100 kPa, x2 = 0.5	0.3497

CCCCCCCCC(=O)O + CCCCCCCCCCCC(=O)O
100 kPa, x2 = 0.25
Conditions	viscosity [mPa·s]
293.15 K	10.12
298.15 K	8.636
303.15 K	7.443
308.15 K	6.47
313.15 K	5.669
318.15 K	5.003
323.15 K	4.444

c1ccc2ccccc2c1 + c1ccccc1
Conditions	viscosity
293.15 K, 101 kPa, x1 = 0.006242	0.653 mPa·s
293.15 K, 101 kPa, x1 = 0.01216	0.66 mPa·s
293.15 K, 101 kPa, x1 = 0.02495	0.674 mPa·s
298.15 K, 101 kPa, x1 = 0.051	0.6565 mPa·s
298.15 K, 101 kPa, x1 = 0.1121	0.7261 mPa·s
298.15 K, 101 kPa, x1 = 0.1538	0.7707 mPa·s
298.15 K, 101 kPa, x1 = 0.1979	0.8263 mPa·s
298.15 K, 101 kPa, x1 = 0.2398	0.8764 mPa·s
298.15 K, 101 kPa, x1 = 0.2476	0.8712 mPa·s
298.15 K, 101 kPa, x1 = 0.2693	0.9178 mPa·s
298.15 K, 101.33 kPa, x1 = 0.0282	0.6309 mPa·s
298.15 K, 101.33 kPa, x1 = 0.069	0.6732 mPa·s
298.15 K, 101.33 kPa, x1 = 0.0898	0.6932 mPa·s
298.15 K, 101.33 kPa, x1 = 0.1341	0.7423 mPa·s
298.15 K, 101.33 kPa, x1 = 0.1587	0.7733 mPa·s
298.15 K, 101.33 kPa, x1 = 0.2089	0.833 mPa·s
298.15 K, 101.33 kPa, x1 = 0.25	0.8712 mPa·s
298.15 K, 101.33 kPa, x1 = 0.2533	0.8891 mPa·s
303.15 K, 101 kPa, x1 = 0.2476	0.8077 mPa·s
303.15 K, 101 kPa, x1 = 0.3593	0.9452 mPa·s
303.15 K, 101.33 kPa, x1 = 0.0282	0.5882 mPa·s
303.15 K, 101.33 kPa, x1 = 0.069	0.6269 mPa·s
303.15 K, 101.33 kPa, x1 = 0.0898	0.6448 mPa·s
303.15 K, 101.33 kPa, x1 = 0.1341	0.6897 mPa·s
303.15 K, 101.33 kPa, x1 = 0.1587	0.7181 mPa·s
303.15 K, 101.33 kPa, x1 = 0.2089	0.7723 mPa·s
303.15 K, 101.33 kPa, x1 = 0.25	0.8077 mPa·s and 0.8077 mPa·s
303.15 K, 101.33 kPa, x1 = 0.2533	0.8222 mPa·s
303.15 K, 101.33 kPa, x1 = 0.26	0.8211 mPa·s
303.15 K, 101.33 kPa, x1 = 0.33	0.874 mPa·s
303.15 K, 101.33 kPa, x1 = 0.36	0.9452 mPa·s and 0.9452 mPa·s
308.15 K, 101 kPa, x1 = 0.2476	0.7485 mPa·s
308.15 K, 101 kPa, x1 = 0.3593	0.8742 mPa·s
308.15 K, 101.33 kPa, x1 = 0.25	0.7485 mPa·s
308.15 K, 101.33 kPa, x1 = 0.36	0.8742 mPa·s
313.15 K, 101 kPa, x1 = 0.006242	0.501 mPa·s
313.15 K, 101 kPa, x1 = 0.01216	0.505 mPa·s
313.15 K, 101 kPa, x1 = 0.02495	0.514 mPa·s
313.15 K, 101 kPa, x1 = 0.2476	0.6983 mPa·s
313.15 K, 101 kPa, x1 = 0.3593	0.8115 mPa·s
313.15 K, 101.33 kPa, x1 = 0.0282	0.516 mPa·s
313.15 K, 101.33 kPa, x1 = 0.069	0.5478 mPa·s
313.15 K, 101.33 kPa, x1 = 0.0898	0.5665 mPa·s
313.15 K, 101.33 kPa, x1 = 0.1341	0.6017 mPa·s
313.15 K, 101.33 kPa, x1 = 0.1587	0.6263 mPa·s
313.15 K, 101.33 kPa, x1 = 0.2089	0.6698 mPa·s
313.15 K, 101.33 kPa, x1 = 0.25	0.6983 mPa·s
313.15 K, 101.33 kPa, x1 = 0.2533	0.72 mPa·s
313.15 K, 101.33 kPa, x1 = 0.36	0.8115 mPa·s
318.15 K, 101 kPa, x1 = 0.2476	0.654 mPa·s
318.15 K, 101 kPa, x1 = 0.3593	0.7546 mPa·s
318.15 K, 101.33 kPa, x1 = 0.25	0.654 mPa·s and 0.654 mPa·s
318.15 K, 101.33 kPa, x1 = 0.26	0.666 mPa·s
318.15 K, 101.33 kPa, x1 = 0.33	0.7066 mPa·s
318.15 K, 101.33 kPa, x1 = 0.36	0.7546 mPa·s and 0.7546 mPa·s
318.15 K, 101.33 kPa, x1 = 0.418	0.817 mPa·s
323.15 K, 101 kPa, x1 = 0.009498	0.445 mPa·s
323.15 K, 101 kPa, x1 = 0.02432	0.454 mPa·s
323.15 K, 101 kPa, x1 = 0.02618	0.456 mPa·s
323.15 K, 101.33 kPa, x1 = 0.0282	0.4564 mPa·s
323.15 K, 101.33 kPa, x1 = 0.069	0.4838 mPa·s
323.15 K, 101.33 kPa, x1 = 0.0898	0.4993 mPa·s
323.15 K, 101.33 kPa, x1 = 0.1341	0.529 mPa·s
323.15 K, 101.33 kPa, x1 = 0.1587	0.5509 mPa·s
323.15 K, 101.33 kPa, x1 = 0.2089	0.5871 mPa·s
323.15 K, 101.33 kPa, x1 = 0.2533	0.6319 mPa·s
